According to PMC7337386 (bioRxiv, 2020):
Entries after “also recorded” stand apart in the source; their conditions may differ.

Legend:
[1] = healthy adults; cited from earlier work
[2] = test system: SARS-CoV-2 (USA_WA1/2020); assay: SARS-CoV-2 viral cytopathic effect assay; type: cell-based; conditions: for maximum rescue of CPE, drug alone: single agent; for interaction with nitazoxanide: in combination with nitazoxanide; for interaction with nitazoxanide / interaction with remdesivir: CPE assay; for interaction with remdesivir / interaction with remdesivir at high concentrations: in combination with remdesivir
[3] = cited from earlier work; for time of peak concentration: after oral administration
SARS-CoV-2 = conditions: single agent; cited from earlier work

Compound | maximum rescue of CPE, drug alone [2] | time of peak concentration [3] [min] | interaction with nitazoxanide [2] | interaction with remdesivir [2] | interaction with remdesivir at high concentrations [2] | also measured
CC(=O)Oc1ccccc1C(=O)Nc1ncc([N+](=O)[O-])s1 [Nitazoxanide] | 40–60% |  |  |  |  | tolerability [1]: well tolerated; toxicity (Vero E6 cells; 10 μM): ~ 20%; cytotoxicity (Vero E6 cells; concentration below 5 μM): not cytotoxic
CCN(CC)Cc1cc(Nc2ccnc3cc(Cl)ccc23)ccc1O [Amodiaquine] | 40–60% | ≤ 30 | significant synergy; also recorded: notable synergism | strong antagonistic effect | synergize | half-life [3]: ~ 3 hours; loss of potency in Calu-3 (TMPRSS2+) versus Vero E6 (SARS-CoV-2): > 10 fold
CCC(CC)COC(=O)[C@H](C)N[P@](=O)(OC[C@H]1O[C@@](C#N)(c2ccc3c(N)ncnn23)[C@H](O)[C@@H]1O)Oc1ccccc1 [Remdesivir] | 40–60% |  | significant synergy; also recorded: notable synergism |  |  | 
OC(c1cc(C(F)(F)F)nc2c(C(F)(F)F)cccc12)C1CCCCN1 (centres unmarked) [Mefloquine] |  |  |  | strong antagonistic effect | synergize | 
CCNCc1cc(Nc2ccnc3cc(Cl)ccc23)ccc1O [monodesethyl-amodiaquine] |  | 120 |  |  |  | peak concentration ([3]; after oral administration of amodiaquine): ~ 500 nM; half-life in blood plasma [3]: 220 to 432 h
CCOC(=O)c1c(CSc2ccccc2)n(C)c2cc(Br)c(O)c(CN(C)C)c12 [Arbidol] |  |  |  |  | synergize | concentrations showing synergism with remdesivir [2]: 3 to 10 µM
